Data reported in patent US20040224377A1, “Compositions and methods to quench light from optical reactions” (priority 2003, published 2004).
One block for each compound: values may come before it.

Tests used:
Assay type in all cases: biochemical
[1] = target: T1, Renilla luciferase (Renilla reniformis, UniProt P27652); assay: Selective quench of Renilla luciferase luminescent reaction (Example I); conditions: for Fold quench of Renilla luciferase: Luciferase Assay Reagent with 1% Tergitol NP-9, 200 μM coelenterazine hh methyl ether, 1 mM berberine hemisulfate or combinations, initial divided by residual luminescence
T1 sequence (P27652 1-311): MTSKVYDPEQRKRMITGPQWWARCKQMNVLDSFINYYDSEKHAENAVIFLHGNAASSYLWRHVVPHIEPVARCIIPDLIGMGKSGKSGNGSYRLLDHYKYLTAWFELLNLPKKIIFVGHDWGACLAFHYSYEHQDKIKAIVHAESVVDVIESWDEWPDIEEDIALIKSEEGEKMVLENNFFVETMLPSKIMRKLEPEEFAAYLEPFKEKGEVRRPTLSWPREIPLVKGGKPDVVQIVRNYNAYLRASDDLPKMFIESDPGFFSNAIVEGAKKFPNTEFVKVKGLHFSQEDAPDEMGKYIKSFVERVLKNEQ
Description: Each buffer was added to a vial of Luciferase Assay Substrate (pt. El 51, Promega Corporation) to make Luciferase Assay Reagent (LAR) plus the quenching agent(s). […] Luminescence was initiated by addition of 20 μl of enzyme solution to 100 μl of Renilla Luciferase Assay Reagent, and measured. […] Fold quench was calculated as the quotient of the initial Renilla luciferase luminescence divided by the residual Renilla luciferase luminescence.

[2] = system: firefly luciferase; assay: Quenching phosphorescence from white luminometer plate, signal/background with firefly luciferase (Example IV); conditions: relative to phosphorescence S/B before dye
Description: (§1) Stocks of Amaranth (Aldrich, 120561), Benzopurpurin 4B (Aldrich # 22882), and Fluorescence Brightener 28 (Aldrich 475300) were prepared in DMSO (Sigma) at 100 μM. Luminometer plates (96-well) were purchased from Dynex Technologies. The luminometer plates were broken into pieces that would fit into single luminometer tubes (12 mm diameter) purchased from Promega Corporation. All experiments were performed in a lab under normal fluorescent lighting.
(§2) The experiment measured the signal/background ratio before and after the addition of colored compounds or DMSO. Luminescence measurements were taken from the empty luminescent tube in each experiment to quantitate background. A piece of white luminescent plate, 100 μl of Bright-Glo™ Reagent prepared according to the manufacturer's instructions (Promega Corporation), and 100 μl of Glo Lysis Buffer (Promega Corporation) were placed into the luminescent tube, and the luminescence was again measured. […] 2 μl of DMSO or one of the dyes in DMSO were then added to the tube, the sample was mixed, and the luminescence was measured a third time. This measurement captured the amount of luminescence emitted through the now-colored reagent or the reagent containing the DMSO carrier. Finally, 2 μl of luciferase was added to the tube, the sample was mixed, and the luminescence measured a final time. […]

[3] = target: firefly luciferase (Photinus pyralis, UniProt P08659); assay: Effect of quench reagents on firefly luciferase luminescent reaction (FIGS. 1-3); conditions: luminescence normalized to value without the reagent
Description: To test the effect of coelenterazine hh methyl ether on a firefly luciferase luminescent reaction, a luciferase reagent was prepared (270 μM coenzyme A (Pharmacia), 530 μM ATP (Pharmacia), 20 mM Tricine pH 7.8 (Fisher), 1 mM magnesium carbonate (Sigma), 0.1 mM ETDA (Sigma), 2.7 mM magnesium sulfate (Sigma), and 33 mM dithiothreitol (Sigma)) with varying concentrations of beetle luciferin (Promega), both above and below the concentration required for luciferase saturation (940 μM, 470 μM, 235 μM and 117.5 μM, saturation occurs at about 470 μM). […] Luminescence from firefly luciferase was measured by adding 20 μl of firefly luciferase (5×10^−14 moles/reaction) (Promega Corp.) in 1× Cell Culture Lysis Reagent (Promega Corporation) containing 1 mg/ml bovine serum albumin (BSA) to 100 μl of the luciferase reagents. Luminescence was normalized to the value integrated in the absence of coelenterazine hh methyl ether.
To test the effect of Tergitol® NP-9 on the firefly luciferase luminescent reaction, Luciferase Assay Reagent (Promega Corporation) was prepared according to the manufacturer's instructions. […] Luminescence was integrated after adding 20 μl of firefly luciferase (2.5×10^−14 moles/reaction) in 150 mM HEPES pH 7.4 and 1 mg/ml gelatin, to 100 μl of reagent. Luminescence was normalized to the value integrated for no detergent. […]

[4] = system: horseradish peroxidase (HRP); assay: Quenching light from horseradish peroxidase/luminol chemiluminescent reaction (Example III, FIG. 4)
Description: 20 μl of 0.044 mg/ml horseradish peroxidase (HRP), prepared in KPO4, pH 6.5, was added to 100 μl of 50 mM NaHCO3, 2 μM H2O2+/−100 μM berberine hemisulfate. […] 100 μl of 10 mM Luminol (Sigma) in 55 mM NaOH was then added to initiate the chemiluminescent reaction and the luminescence was measured on a luminometer. Luminescence was captured at various times after reaction initiation.

[5] = system: red click beetle luciferase; assay: Quenching phosphorescence from white luminometer plate, signal/background with red click beetle luciferase (Example IV); conditions: relative to phosphorescence S/B before dye
Description: as §1, §2

firefly luciferase (Photinus pyralis, UniProt P08659), sequence (P08659 whole entry): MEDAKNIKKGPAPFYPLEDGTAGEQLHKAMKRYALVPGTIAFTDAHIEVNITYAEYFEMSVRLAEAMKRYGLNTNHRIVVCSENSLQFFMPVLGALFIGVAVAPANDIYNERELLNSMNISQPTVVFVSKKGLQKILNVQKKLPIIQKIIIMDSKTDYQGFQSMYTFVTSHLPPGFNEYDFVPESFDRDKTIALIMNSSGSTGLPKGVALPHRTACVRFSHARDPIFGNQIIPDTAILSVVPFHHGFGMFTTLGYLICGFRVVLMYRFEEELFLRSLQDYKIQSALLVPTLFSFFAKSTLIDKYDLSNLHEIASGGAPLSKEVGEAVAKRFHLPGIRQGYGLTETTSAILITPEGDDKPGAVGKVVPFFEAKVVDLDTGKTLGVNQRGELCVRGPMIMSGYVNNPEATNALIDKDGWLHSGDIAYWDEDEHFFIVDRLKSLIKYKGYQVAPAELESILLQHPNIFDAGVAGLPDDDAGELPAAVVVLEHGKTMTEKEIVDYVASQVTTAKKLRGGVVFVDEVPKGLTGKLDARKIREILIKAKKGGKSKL

Compound: OCCN(CCO)c1nc(N2CCCCC2)c2nc(N(CCO)CCO)nc(N3CCCCC3)c2n1 [dipyridamole]
quench of the Renilla luciferase luminescent reaction ([1]; at 1 mM): about 35 fold

S/B Improvement [2]: 440%
Compound: O=S(=O)([O-])c1cc(Nc2nc(Nc3ccccc3)nc(N(CCO)CCO)n2)ccc1/C=C/c1ccc(Nc2nc(Nc3ccccc3)nc(N(CCO)CCO)n2)cc1S(=O)(=O)[O-].[Na+].[Na+] [Fluorescence Brightener, Fluorescence Brightener 28]

Compound: COc1c(Cc2ccccc2)nc2c(Cc3ccccc3)nc(-c3ccccc3)cn12 [coelenterazine hh methyl ether, 2,8-dibenzyl-3-methoxy-6-phenyl-imidazo[1,2-a]pyrazine]
effect on firefly luciferase luminescence [3]: not affected

Compound: Tergitol NP-9
Fold quench of Renilla luciferase [1]: 86.67 fold

Compound: berberine hemisulfate
Fold quench of Renilla luciferase [1]: 46 fold
effect on firefly luciferase luminescence [3]: not affected
effect on horseradish peroxidase chemiluminescence (FIG. 4) [4]: quenches
quench of horseradish peroxidase-dependent chemiluminescence ([4]; 100 μM berberine hemisulfate, luminol): over 500 fold

S/B Improvement [5]: 4500%
Compound: Cc1cc(-c2ccc(N=Nc3cc(S(=O)(=O)[O-])c4ccccc4c3N)c(C)c2)ccc1N=Nc1cc(S(=O)(=O)[O-])c2ccccc2c1N.[Na+].[Na+] [Benzopurpurin 4B]
